Earlier results in patent publication US20220175648A1, “TOPICAL FORMULATIONS WITH LIPID-BASED CARRIERS” (KATE ROSE LLC, priority 2020, published 2022).

Columns and labels:
[1] = after just one year
[2] = tested on: UV B and reactive oxygen species; conditions: in vitro studies
collagen synthesis = conditions: versus L-ascorbic acid at the same dosage
age spots = conditions: 10% solution

SMILES	break down of L-ascorbic acid [1]	protection against UV B and reactive oxygen species [2]	increase of collagen synthesis (collagen synthesis)	presence of age spots (age spots)
O=C1O[C@H]([C@@H](O)CO)C(O)=C1O [L-ascorbic acid]	20%	–	–	–
CCCCCCCCC(CCCCCC)C(=O)OC[C@H](OC(=O)C(CCCCCC)CCCCCCCC)[C@H]1OC(=O)C(OC(=O)C(CCCCCC)CCCCCCCC)=C1OC(=O)C(CCCCCC)CCCCCCCC (stereo partly shown) [THD, Tetrahexyldecyl ascorbate]	–	effective at protecting against UV B and reactive oxygen species	up to two times greater than L-ascorbic acid	decreases the presence of age spots
